For assay [1], the target named is T1, androgen receptor (AR) (Homo sapiens, UniProt P10275).
T1 construct: endogenous in cells; host or cells: VCAP
T1 sequence (P10275 1-920): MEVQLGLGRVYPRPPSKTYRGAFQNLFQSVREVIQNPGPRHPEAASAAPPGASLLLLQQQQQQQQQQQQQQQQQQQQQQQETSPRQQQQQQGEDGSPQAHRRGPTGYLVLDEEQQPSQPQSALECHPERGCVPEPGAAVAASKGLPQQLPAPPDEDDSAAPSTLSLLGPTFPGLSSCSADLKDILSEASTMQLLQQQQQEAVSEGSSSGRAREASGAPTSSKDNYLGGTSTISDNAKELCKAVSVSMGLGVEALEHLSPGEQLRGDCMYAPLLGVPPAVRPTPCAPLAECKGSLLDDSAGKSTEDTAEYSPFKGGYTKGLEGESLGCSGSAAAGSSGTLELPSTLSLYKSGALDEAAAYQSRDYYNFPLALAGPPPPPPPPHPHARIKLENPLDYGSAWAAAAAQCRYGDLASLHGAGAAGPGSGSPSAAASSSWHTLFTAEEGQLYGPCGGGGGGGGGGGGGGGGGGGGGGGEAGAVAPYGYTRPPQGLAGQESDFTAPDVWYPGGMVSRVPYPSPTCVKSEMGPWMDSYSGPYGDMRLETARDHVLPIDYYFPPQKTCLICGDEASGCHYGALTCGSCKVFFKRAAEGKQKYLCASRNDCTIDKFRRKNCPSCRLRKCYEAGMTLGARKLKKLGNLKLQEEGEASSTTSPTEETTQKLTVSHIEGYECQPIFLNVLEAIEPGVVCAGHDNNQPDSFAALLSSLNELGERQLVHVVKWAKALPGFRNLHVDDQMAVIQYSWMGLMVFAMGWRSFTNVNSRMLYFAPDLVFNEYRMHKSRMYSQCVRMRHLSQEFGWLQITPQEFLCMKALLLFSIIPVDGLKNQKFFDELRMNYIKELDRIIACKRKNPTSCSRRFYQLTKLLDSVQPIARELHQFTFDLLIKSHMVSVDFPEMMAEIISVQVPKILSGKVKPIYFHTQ
Nature of the assay: AR degradation activity in VCAP cells (Western blot). In kind it is cell-based. The note with it: 24 hours after administration, DC50 = concentration needed for 50% target protein degradation. The method, then:
(§1) LNCAP, VCAP and 22Rv1 cells were plated in 24-well plates at 1.5×10E5 cells/well in the RPMI growth medium containing 10% FBS and 1% Penicillin Streptomycin, and then incubated at 37° C. overnight. The following day, the test compound was administered to the cells by using 1000× compound stock solution prepared in DMSO at various concentrations. After administration of the compound, the cells were then incubated at 37° C. for 24 hours. Upon completion, the cells were washed with PBS and protein was collected in Laemmli sample buffer (1×; VWR International). Proteins in cell lysate were separated by SDS-PAGE and transferred to Odyssey nitrocellulose membranes (Licor) with Iblot® dry blotting transfer system (ThermoFisher). Nonspecific binding was blocked by incubating membranes with Intercept Blocking Buffer (Licor) for 1 hour at room temperature with gentle shaking. The membranes were then incubated overnight at 4° C. with Primary antibodies rabbit anti-AR (1:1,000, Cell Signaling, 5153) and mouse anti-GAPDH (1:5,000, Santa Cruz Biotechnology, sc-47724) diluted in Intercept Blocking Buffer containing 0.1% Tween 20. After washing 3 times with TBS-T, the membranes were incubated with IRDye® 800CW goat anti-mouse IgG (1:20,000, Licor) or IRDye® 800CW goat anti-rabbit IgG (1:20,000, Licor) for 1 hour. After TBS-T washes, membranes were rinsed in TBS and scanned on Odyssey® CLx Imaging System (Licor). The bands were quantified using Image Studio™ Software (Licor).
(§2) Table 4 summarizes the androgen receptor (AR) degradative activity of exemplary compounds in LNCAP, VCAP and 22Rv1 cell lines 24 hours after administration. DC50: compound concentration needed for 50% target protein degradation.
(Immunoblotting shows a protein as a band on a membrane.)

Assay [2] deals with T2, androgen receptor (AR) (Homo sapiens, UniProt P10275, T878A).
T2 construct: endogenous in cells; host or cells: LNCAP
T2 sequence (P10275 1-920 T878A): T1 sequence (P10275 1-920) with T878A
Nature of the assay: AR degradation activity in LNCAP cells (Western blot). In kind it is cell-based. The note with it: 24 hours after administration, DC50 = concentration needed for 50% target protein degradation. The method, then: as §1, §2

Residue numbers refer to the chain shown, from its start.

What is called DC50 is the midpoint of the concentration-degradation curve.

As for `N#Cc1ccc(O[C@H]2CC[C@H](NC(=O)c3ccc(N4CCC(CN5CCN(c6ccc7c(c6)C(=O)N(C6CCC(=O)NC6=O)C7=O)CC5)CC4)nc3)CC2)c2cccnc12` (relative stereo) [Compound 3-13, trans-N-(4-((8-cyanoquinolin-5-yl)oxy)cyclohexyl)-6-(4-((4-(2-(2,6-dioxopiperidin-3-yl)-1,3-dioxoisoindolin-5-yl)piperazin-1-yl)methyl)piperidin-1-yl)nicotinamide], the DC50 on androgen receptor (AR) [1] and at androgen receptor (AR) [2] was under 10 nM in each case.

On to `N#Cc1ccc(O[C@H]2CC[C@H](NC(=O)c3ccc(N4CCC(CCN5CCN(c6ccc7c(c6)C(=O)N(C6CCC(=O)NC6=O)C7=O)CC5)CC4)cc3)CC2)c2cccnc12` (relative stereo) [Compound 3-22, trans-N-(4-((8-cyanoquinolin-5-yl)oxy)cyclohexyl)-4-(4-(2-(4-(2-(2,6-dioxopiperidin-3-yl)-1,3-dioxoisoindolin-5-yl)piperazin-1-yl)ethyl)piperidin-1-yl)benzamide], for which the DC50 at androgen receptor (AR) [1] and on androgen receptor (AR) [2] was under 10 nM in each case.

With `CN(CC1CCN(c2ccc(C(=O)NC3CCC(Oc4ccc(C#N)c5ncccc45)CC3)cn2)CC1)C1CC(Oc2ccc3c(c2)C(=O)N(C2CCC(=O)NC2=O)C3=O)C1` (centres unmarked) [Compound 3-9], the DC50 on androgen receptor (AR) [2] is under 10 nM.

`CC(C)N(CC1CCN(c2ccc(C(=O)NC3CCC(Oc4ccc(C#N)c5ncccc45)CC3)cn2)CC1)C1CC(Oc2ccc3c(c2)C(=O)N(C2CCC(=O)NC2=O)C3=O)C1` (centres unmarked) [Compound 3-11]: the DC50 on androgen receptor (AR) [2] is under 10 nM.

With `N#Cc1ccc(O[C@H]2CC[C@H](NC(=O)c3cnc(N4CCC(CN5CCN(c6ccc7c(c6)C(=O)N(C6CCC(=O)NC6=O)C7=O)CC5)CC4)nc3)CC2)c2cccnc12` (stereo partly drawn) [Compound 3-15, trans-N-(4-((8-cyanoquinolin-5-yl)oxy)cyclohexyl)-2-(4-((4-(2-(2,6-dioxopiperidin-3-yl)-1,3-dioxoisoindolin-5-yl)piperazin-1-yl)methyl)piperidin-1-yl)pyrimidine-5-carboxamide], the DC50 at androgen receptor (AR) [1] and at androgen receptor (AR) [2] was under 10 nM each time.

For `N#Cc1ccc(O[C@H]2CC[C@H](NC(=O)c3ccc(N4CCC(CN5CCN(c6ccc7c(c6)C(=O)N(C6CCC(=O)NC6=O)C7=O)CC5)CC4)nn3)CC2)c2cccnc12` (stereo partly drawn) [Compound 3-16, trans-N-(4-((8-cyanoquinolin-5-yl)oxy)cyclohexyl)-6-(4-((4-(2-(2,6-dioxopiperidin-3-yl)-1,3-dioxoisoindolin-5-yl)piperazin-1-yl)methyl)piperidin-1-yl)pyridazine-3-carboxamide], the DC50 at androgen receptor (AR) [1] and at androgen receptor (AR) [2] was under 10 nM in each case.

For `N#Cc1ccc(OC2CCC(NC(=O)c3cnc(N4CCC(CN5CCN(c6ccc7c(c6)C(=O)N(C6CCC(=O)NC6=O)C7=O)CC5)CC4)cn3)CC2)c2cccnc12` (centres unmarked) [Compound 3-17], the DC50 on androgen receptor (AR) [2] was under 10 nM.

Consider `N#Cc1ccc(O[C@H]2CC[C@H](NC(=O)c3ccc(N4CCC(CN5CCN(c6ccc7c(c6)C(=O)N(C6CCC(=O)NC6=O)C7=O)CC5)CC4)cc3)CC2)c2cccnc12` (some centres unmarked) [Compound 3-18, N-(4-((8-cyanoquinolin-5-yl)oxy)cyclohexyl)-4-(4-((4-(2-(2,6-dioxopiperidin-3-yl)-1,3-dioxoisoindolin-5-yl)piperazin-1-yl)methyl)piperidin-1-yl)benzamide], for which the DC50 on androgen receptor (AR) [1] and at androgen receptor (AR) [2] was under 10 nM each time.

Consider `N#Cc1ccc(OC2CCC(NC(=O)c3ccc(N4CCC(CN5CCN(c6ccc7c(c6)C(=O)N(C6CCC(=O)NC6=O)C7=O)CC5)CC4)c(F)c3)CC2)c2cccnc12` (centres unmarked) [Compound 3-19, N-(4-((8-cyanoquinolin-5-yl)oxy)cyclohexyl)-4-(4-((4-(2-(2,6-dioxopiperidin-3-yl)-1,3-dioxoisoindolin-5-yl)piperazin-1-yl)methyl)piperidin-1-yl)-3-fluorobenzamide], for which the DC50 on androgen receptor (AR) [1] and at androgen receptor (AR) [2] was under 10 nM in each case.

For `N#Cc1ccc(OC2CCC(NC(=O)c3cnc(N4CCC(CN5CCN(c6ccc7c(c6)CN([C@H]6CCC(=O)NC6=O)C7=O)CC5)CC4)nc3)CC2)c2cccnc12` (some centres unmarked) [Compound 3-30], the DC50 on androgen receptor (AR) [1] and on androgen receptor (AR) [2] was under 10 nM throughout.

For the compound `N#Cc1ccc(OC2CCC(NC(=O)c3ccc(N4CCC(CN5CCN(c6cc7c(cc6F)C(=O)N(C6CCC(=O)NC6=O)C7=O)CC5)CC4)nc3)CC2)c2cccnc12` (centres unmarked) [Compound 3-35], the half-maximal degradation concentration (DC50) on androgen receptor (AR) [2] was under 10 nM.

`CC(C)N(CC1CCN(c2ccc(C(=O)NC3CCC(Oc4ccc(C#N)c5ncccc45)CC3)nn2)CC1)C1CC(Oc2ccc3c(c2)C(=O)N(C2CCC(=O)NC2=O)C3=O)C1` (centres unmarked) [Compound 3-43] registered a DC50 at androgen receptor (AR) [2] of under 10 nM.

As to `N#Cc1ccc(OC2CCC(NC(=O)c3ccc(N4CCC(CN5CCN(c6cc7c(cc6F)C(=O)N(C6CCC(=O)NC6=O)C7=O)CC5)CC4)cc3)CC2)c2cccnc12` (centres unmarked) [Compound 3-49], at androgen receptor (AR) [2], the DC50 is over 100 nM.

For the compound `N#Cc1ccc(OC2CCC(NC(=O)c3ccc(N4CCC(CN5CCN(c6cc7c(cc6F)C(=O)N(C6CCC(=O)NC6=O)C7=O)CC5)CC4)c(F)c3)CC2)c2cccnc12` (centres unmarked) [Compound 3-50], at androgen receptor (AR) [2], the DC50 was under 10 nM.

At androgen receptor (AR) [2], `N#Cc1ccc(OC2CCC(NC(=O)c3cnc(N4CCC(CN5CCN(c6cc7c(cc6F)C(=O)N(C6CCC(=O)NC6=O)C7=O)CC5)CC4)nc3)CC2)c2cccnc12` (centres unmarked) [Compound 3-51] showed a DC50 of under 10 nM.

For `N#Cc1ccc(OC2CCC(NC(=O)c3cnc(N4CCC(CN5CCN(c6cc7c(cc6F)C(=O)N(C6CCC(=O)NC6=O)C7=O)CC5)CC4)cn3)CC2)c2cccnc12` (centres unmarked) [Compound 3-52], the DC50 at androgen receptor (AR) [2] was under 10 nM.

Regarding `N#Cc1ccc(O[C@H]2CC[C@H](NC(=O)c3cnc(N4CCC(CN5CCN(c6cc7c(cc6F)C(=O)N(C6CCC(=O)NC6=O)C7=O)CC5)CC4)c(F)c3)CC2)c2cccnc12` (some centres unmarked) [Compound 3-53], the DC50 at androgen receptor (AR) [2] was under 10 nM.

The compound `N#Cc1ccc(O[C@H]2CC[C@H](NC(=O)c3cnc(N4CC[C@@H](CN5CCN(c6ccc7c(c6)C(=O)N(C6CCC(=O)NC6=O)C7=O)CC5)C4)nc3)CC2)c2cccnc12` (some centres unmarked) [Compound 3-54] showed a DC50 at androgen receptor (AR) [2] of under 10 nM.

In the case of `N#Cc1ccc(O[C@H]2CC[C@H](NC(=O)c3cnc(N4CC[C@H](CN5CCN(c6ccc7c(c6)C(=O)N(C6CCC(=O)NC6=O)C7=O)CC5)C4)nc3)CC2)c2cccnc12` (some centres unmarked) [Compound 3-55], the DC50 on androgen receptor (AR) [2] is under 10 nM.

The record behind these values is patent publication US11535606B2, “Substituted quinoline-8-carbonitrile derivatives with androgen receptor degradation activity and uses thereof” (ACCUTAR BIOTECHNOLOGY INC., priority 2019, dated 2022).
